Tests used:
MRC-5 = assay: Cell proliferation assay (MTT/MTS); conditions: Homo sapiens, MRC5, read-out: IC50 ± SEM
Description: (§1) All cell lines were authenticated by short tandem repeat analysis and maintained following the ATCC instructions. […] Anti-proliferation activity was analyzed using the 3-(4,5-dimethylthiazole-2-yl)-2,5-diphenyl-2H-tetrazolium bromide (MTT) or (3-(4,5-dimethylthiazol-2-yl)-5-(3-carboxymethoxyphenyl)-2 -(4-sulfophenyl)-2H-tetrazolium) (MTS) assay.
(§2) A375, HT-29 and Calu-6 cell lines were purchased from the typical culture preservation commission cell bank of the Chinese Academy of Sciences in China. […] H358 cell line was obtained from EK-bioscience. Cells were seeded into 96-well plates at an appropriate density, and 24 h later, diluted drug in different concentrations was added to each test well in triplicate. The cell viability was tested 5 days (H358 was analyzed for 7 days) after the cells were plated according to the procedure originally described by Mosmann [1]. Survival rate was calculated using the formula: Survival rate = (Mean absorbance of experimental wells-Mean absorbance of DMSO wells) / (Mean absorbance of control wells-Mean absorbance of DMSO wells) × 100%. IC50 was determined from the regression of a plot of the logarithm of the concentration versus survival rate by GraphPad Prism 6 using the non-linear regression Dose–Response Inhibition (four parameters) Model.

HT-29 = assay: Cell proliferation assay (MTT/MTS); conditions: Homo sapiens, HT-29, read-out: IC50 ± SEM
Description: as §1
(§3) Cells were seeded into 96-well plates at an appropriate density, and 24 h later, diluted drug in different concentrations was added to each test well in triplicate. The cell viability was tested 5 days (H358 was analyzed for 7 days) after the cells were plated according to the procedure originally described by Mosmann [1]. Survival rate was calculated using the formula: Survival rate = (Mean absorbance of experimental wells-Mean absorbance of DMSO wells) / (Mean absorbance of control wells-Mean absorbance of DMSO wells) × 100%. IC50 was determined from the regression of a plot of the logarithm of the concentration versus survival rate by GraphPad Prism 6 using the non-linear regression Dose–Response Inhibition (four parameters) Model.

A375 = assay: Cell proliferation assay (MTT/MTS); conditions: Homo sapiens, A-375, read-out: IC50 ± SEM
Description: as §1, §2

COLO 205 = assay: Cell proliferation assay (MTT/MTS); conditions: Homo sapiens, COLO 205, read-out: IC50 ± SEM
Description: as §1, §2

Calu-6 = assay: Cell proliferation assay (MTT/MTS); conditions: Homo sapiens, Calu-6, read-out: IC50 ± SEM
Description: as §1, §3

Colo-829 = assay: Cell proliferation assay (MTT/MTS); conditions: Homo sapiens, COLO-829, read-out: IC50 ± SEM
Description: as §1, §3

HL-60 = assay: Cell proliferation assay (MTT/MTS); conditions: Homo sapiens, HL-60, read-out: IC50 ± SEM
Description: as §1, §2

COLO 205 cells = assay: Apoptosis assay by flow cytometry; conditions: 48 h, control 21.9%
Description: (§4) Cell lines were inoculated at the density of 2×10^4 cells per well in a 6-well plate and cultured overnight. […] The cell cycle or apoptosis analysis was performed by flow cytometry.
(§5) Tumor cell lines were inoculated in 6-well plates at a density of 2×10^4 cells/well. […] Both apoptosis and cell cycle were measured by flow cytometry (Accuri C6, BD biosciences).

A549 = assay: Cell proliferation assay (MTT/MTS); conditions: Homo sapiens, A549, read-out: IC50 ± SEM
Description: as §1, §3

H1975 = assay: Cell proliferation assay (MTT/MTS); conditions: Homo sapiens, NCI-H1975, read-out: IC50 ± SEM
Description: as §1, §2

A375 cells = assay: Apoptosis assay by flow cytometry; conditions: 48 h
Description: as §4, §5

hERG channel = system: hERG channel; design: method as in Food and Drug Administration, 2015; conditions: ref Food and Drug Administration, 2015; cited from earlier work
[1] = design: method as in Infante et al., 2012; conditions: requires DMSO as co-solvate; ref Infante et al., 2012; cited from earlier work
[2] = cited from earlier work
MEK1/MAP2K1(h) = MEK1/MAP2K1(h) (Homo sapiens, UniProt Q02750); assay: MEK1 inhibition, comparison of tunlametinib and MEK162 (Caliper EZ Reader)
Description: Kinase inhibition activity against MEK1 was conducted in Cerep (France) and Sundia (Shanghai, China).
The signals were measured using Caliper EZ Reader and the data were analyzed.

MEK2 kinase = target: MEK2 kinase; design: method as in Iverson et al., 2009; conditions: ref Iverson et al., 2009; cited from earlier work
MEK1 kinase = target: MEK1 kinase; design: method as in Iverson et al., 2009; conditions: ref Iverson et al., 2009; cited from earlier work

Chain of MEK1/MAP2K1(h) (Q02750 whole entry): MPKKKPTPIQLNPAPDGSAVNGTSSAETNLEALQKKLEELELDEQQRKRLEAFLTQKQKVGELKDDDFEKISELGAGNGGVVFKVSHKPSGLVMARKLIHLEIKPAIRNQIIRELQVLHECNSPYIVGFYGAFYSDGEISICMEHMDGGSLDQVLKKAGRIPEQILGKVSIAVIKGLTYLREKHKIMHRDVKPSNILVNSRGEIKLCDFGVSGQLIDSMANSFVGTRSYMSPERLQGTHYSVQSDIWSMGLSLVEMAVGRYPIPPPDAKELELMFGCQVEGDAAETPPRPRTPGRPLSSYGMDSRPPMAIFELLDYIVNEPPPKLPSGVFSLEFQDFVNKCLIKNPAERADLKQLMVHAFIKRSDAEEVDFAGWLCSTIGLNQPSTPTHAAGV

Row | Structure (SMILES) | IC50 (MRC-5) | IC50 (HT-29) | IC50 (A375) | IC50 (COLO 205) | IC50 (Calu-6) | IC50 (Colo-829) | IC50 (HL-60) | IC50 (A549) | IC50 (H1975) | apoptosis-inducing effect (A375 cells) | also measured
1 | Cn1cnc2c(F)c(Nc3ccc(Br)cc3Cl)c(C(=O)NOCCO)cc21 [AZD6244, selumetinib] | > 50000 nM | 175 ± 19.3 nM | 67.52 ± 0.07 nM | 54.3 ± 2.21 nM | 2310 ± 204 nM | 301 ± 88.8 nM | 35.3 ± 20.9 nM | 5730 ± 1030 nM | > 50000 nM | no significant apoptosis-inducing effect | apoptosis rate (COLO 205 cells; 1 μM): 40.6%
2 | O=C(c1ccc(F)c(F)c1Nc1ccc(I)cc1F)N1CC(O)([C@@H]2CCCCN2)C1 [Cobimetinib, cobimetinib] |  |  |  |  |  |  |  |  |  |  | IC50 (hERG channel): 500 nM
3 | CC(=O)Nc1cccc(-n2c(=O)n(C3CC3)c(=O)c3c(Nc4ccc(I)cc4F)n(C)c(=O)c(C)c32)c1 [GSK212, trametinib] | > 1000 nM | 1.45 ± 0.2 nM | 0.74 ± 0.01 nM | 0.74 ± 0.02 nM | 10.56 ± 0.07 nM | 1.78 nM | 0.6 ± 0.28 nM | 45.4 ± 4.76 nM | > 1000 nM | no significant apoptosis-inducing effect | apoptosis rate (COLO 205 cells; 20 nM): 47.0%; solubility property [1]: poor solubility; drug accumulation ([2]; ref Infante et al., 2012): ~6 fold; mean accumulation ratio (day15/day1) ([2]; repeat dose of 2 mg, ref Food and Drug Administration, 2013): ~6.0
4 | Cn1cnc2c(F)c(Nc3ccc(Br)cc3F)c(C(=O)NOCCO)cc21 [MEK162, binimetinib] |  |  |  |  |  |  |  |  |  |  | IC50 (MEK1/MAP2K1(h)): 224 ± 16.9 nM
5 | COc1cc(F)c(F)c(Nc2ccc(I)cc2F)c1NS(=O)(=O)C1(C[C@H](O)CO)CC1 [REDA119] |  |  |  |  |  |  |  |  |  |  | IC50 (MEK2 kinase): 47 nM; IC50 (MEK1 kinase): 19 nM

Source: PMC10557067, “Preclinical characterization of tunlametinib, a novel, potent, and selective MEK inhibitor” (Frontiers in Pharmacology, 2023)
